“Also recorded” adds a separate entry of the source. Counter-ions that a name gives are not always drawn. Values belong to the compound of their own block, whether it stands above or below them.
Tests used:
[1] = target: human kinesin spindle protein KSP/Eg5 (Homo sapiens (Human), UniProt P52732); test: Inhibition of the kinesin spindle protein KSP/Eg5 (ATPase, malachite green); type: biochemical; conditions: Table 2; active metabolites; 10 nM KSP motor domain, 500 μM ATP
Experimental: The motor domain of the human kinesin spindle protein KSP/Eg5 (tebu-bio/Cytoskeleton Inc, No. 027EG01-XL) was incubated in a concentration of 10 nM with microtubuli (bovine or porcine, tebu-bio/Cytoskeleton Inc) stabilized with 50 μg/ml taxol (Sigma No. T7191-5MG) for 5 min at RT in 15 mM PIPES, pH 6.8 (5 mM MgCl2 and 10 mM DTT, Sigma). […] Incubation was at RT for 2 h. ATPase activity was detected by detecting the inorganic phosphate formed using malachite green (Biomol). […] The positive controls used were monastrol (Sigma, M8515-1 mg) and ispinesib (AdooQ Bioscience A10486). The individual data of the dose-activity curve are eight-fold determinations. The IC50 values are means of two independent experiments.

Caco-2 cells = test: Caco-2 flux assay for cell permeability; type: in vitro ADME
Experimental: The cell permeability of a substance can be investigated by means of in vitro testing in a flux assay using Caco-2 cells [M. D. Troutman and D. R. Thakker, Pharm. […] For this purpose, the cells were cultured for 15-16 days on 24-well filter plates. For the determination of permeation, the respective test substance was applied in a HEPES buffer to the cells either apically (A) or basally (B) and incubated for 2 hours. After 0 hours and after 2 hours, samples were taken from the cis and trans compartments. The samples were separated by HPLC (Agilent 1200, Böblingen, Germany) using reverse phase columns. The HPLC system was coupled via a Turbo Ion Spray Interface to a Triple Quadropol mass spectrometer API 4000 (AB SCIEX Deutschland GmbH, Darmstadt, Germany).
Of critical importance for toxophors which are released intracellularly is the permeability from B to A [Papp (B-A)] and the ratio of Papp (B-A) to Papp (A-B) (efflux ratio): the lower this permeability, the slower the active and passive transport processes of the substance through the monolayer of Caco-2 cells.

legumain = legumain (Homo sapiens (Human), UniProt Q99538); test: Legumain assay (cleavage of prodrug); type: biochemical; conditions: pH 5.0; for half-life: human, recombinant human legumain, rh legumain 1 ng/μl, 50 mM MES, 250 mM NaCl, read-out: half-life of cleavage to the target compound in the legumain assay (converted)
Experimental: The legumain assay was conducted with recombinant human enzyme. The rh legumain enzyme solution (catalogue #2199-CY, R&D Systems) was diluted to the desired concentration in 50 mM Na acetate buffer/100 mM NaCl, pH4.0 and preincubated at 37° C. for 2 h. rh legumain was then adjusted to a final concentration of 1 ng/μl in 50 mM MES buffer, 250 mM NaCl, pH 5.0. For every legumain-cleavable prodrug to be examined, a mixture was made up in a micro reaction vessel (0.5 ml, from Eppendorf). For this purpose, the substrate solution was adjusted to the desired concentration (double concentration) with 50 mM MES buffer, 250 mM NaCl, pH 5.0. For the kinetic measurement of the enzymatic reaction, 250 μl of the legumain solution were first initially charged and the enzyme reaction was started by adding 250 μl of the substrate solution (final concentration: single concentration). At different times, 50 μl samples were taken. This sample was admixed immediately with 100 μl of ice-cold methanol in order to stop the enzymatic reaction and then frozen at −20° C. The times selected for sampling were after 0.5 h, 1 h, 3 h and 24 h. The samples were then analysed by means of RP-HPLC analysis and by LC-MS analysis. The determination of the toxophore released enabled the determination of the half-life t1/2 of the enzymatic reaction (FIG. 1).

[2] = Stability in rat liver lysosomes; type: in vitro ADME; conditions: rat liver lysosomal extract, 37° C.; for extent of cleavage in the lysosomal stability assay: within 24 h
Experimental: To determine the lysosomal stability of compounds RM-A and RM-B, lysosomal enzymes were isolated from rat liver cells. Compounds A and B were each added to this lysosomal extract in order to examine stability under lysosomal conditions. The proteolytic enzyme legumain is expressed only in a very small amount, if any, in rat liver lysosomes (Chen, J-M. et al 1997). To monitor the enzymatic activity of the lysosomal enzymes, a cathepsin-specific substrate was added.
First of all, a fresh rat liver was removed, weighed and immediately placed on ice in homogenization medium (0.25 M sucrose, 1 mM EDTA, 10 mM HEPES, pH7). The liver was comminuted and a change of medium was undertaken. The rat livers were homogenized with 4 times the amount of the rat liver weight at 750 rpm in a Potter (B. Braun). The homogenate was centrifuged at 1000 g for 10 min and the supernatant was filtered. In the next step, with the aid of an ultracentrifuge, the “light mitochondrial fraction” (LMF) was centrifuged out of the supernatant at 26 500 g over 20 min. Also present in the pellet apart from mitochondria are the lysosomes. The supernatant was discarded and the pellet was resuspended with 0.8 ml/g of homogenization medium.
The sucrose was added from a 2.3 M stock solution of the particular percentage. 2.5 ml of isolated LMF were additionally added to the density stage with a sucrose content of 19%. Subsequently, the density stages were layered one on top of another in 10 ml centrifuge tubes and centrifuged at 48 500 g for 17 h. […] To monitor the lysis, the protein content of the lysed lysosomal fraction was monitored with the aid of a BCA assays (Pierce BCA protein assay kit).
To examine the lysosomal stability of compounds RM-A and RM-B, 6 μl of a 100 μg/ml stock solution (9 acetonitrile/1 DMSO) were added to 290 μl of 90 mM citrate buffer and 300 μl of lysosomal extract and incubated at 37° C. on an Eppendorf shaker. […] For the RP-HPLC LCMS analysis, the samples were diluted with 300 μl of 10 mM ammonium acetate buffer (pH 6.8) and analysed.

Chain of legumain (Q99538 18-323): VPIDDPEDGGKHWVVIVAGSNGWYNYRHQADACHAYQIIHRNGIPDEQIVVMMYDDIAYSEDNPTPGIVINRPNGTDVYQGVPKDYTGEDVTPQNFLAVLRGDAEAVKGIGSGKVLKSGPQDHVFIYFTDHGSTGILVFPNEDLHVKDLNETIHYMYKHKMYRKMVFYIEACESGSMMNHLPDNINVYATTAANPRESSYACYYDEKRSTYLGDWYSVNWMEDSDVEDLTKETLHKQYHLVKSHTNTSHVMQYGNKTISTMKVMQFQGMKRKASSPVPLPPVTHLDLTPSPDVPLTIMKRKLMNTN
Chain of human kinesin spindle protein KSP/Eg5 (P52732 18-359): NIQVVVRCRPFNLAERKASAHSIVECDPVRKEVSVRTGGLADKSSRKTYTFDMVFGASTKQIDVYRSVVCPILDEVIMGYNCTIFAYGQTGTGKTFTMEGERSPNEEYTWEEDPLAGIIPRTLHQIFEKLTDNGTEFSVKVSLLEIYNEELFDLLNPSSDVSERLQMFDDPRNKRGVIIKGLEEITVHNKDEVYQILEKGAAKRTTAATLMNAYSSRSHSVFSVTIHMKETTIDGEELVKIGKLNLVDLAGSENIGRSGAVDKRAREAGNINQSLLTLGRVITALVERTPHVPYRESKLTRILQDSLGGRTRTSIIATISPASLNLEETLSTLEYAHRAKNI

Compound: CC(C)(C)[C@H](c1cc(-c2cc(F)ccc2F)cn1Cc1ccccc1)N(CC[C@H](N)C(=O)NCCNC(=O)[C@@H](CCC(=O)O)NC(=O)CNC(=O)[C@H](CC(=O)O)SC[C@H](N)C(=O)O)C(=O)CO [Example M2, trifluoroacetic acid salt]
IC50 [1]: 0.467 nM
transport from the cell and efflux ratio (in words) (Caco-2 cells; Caco-2): very low level of transport from the cell and a low efflux ratio
Papp (B-A) (Caco-2 cells; Caco-2, basal to apical, 2 hours): 0.11 ×10⁻⁶ cm/s
Efflux ratio (Caco-2 cells; Caco-2, ratio of Papp (B-A) to Papp (A-B)): 1.6

Compound: CNC(=O)[C@H](CCN(C(=O)CO)[C@@H](c1cc(-c2cc(F)ccc2F)cn1Cc1ccccc1)C(C)(C)C)NC(=O)[C@H](CC(N)=O)NC(=O)[C@H](C)NC(=O)[C@H](C)NC(=O)Cc1ccncc1 [RM-A, N-(Pyridin-4-ylacetyl)-L-alanyl-L-alanyl-N^1-[(2S)-4-[{(1R)-1-[1-benzyl-4-(2,5-difluorophenyl)-1H-pyrrol-2-yl]-2,2-dimethylpropyl}(glycoloyl)amino]-1-(methylamino)-1-oxobutan-2-yl]-L-aspartamide]
half-life (legumain): 0.2 h
half-life at 1 µg/ml [2]: ~6 h
extent of cleavage in the lysosomal stability assay [2]: about 80%

half-life (legumain): ~10 h
extent of cleavage in the lysosomal stability assay [2]: 13%
Compound: CNC(=O)[C@H](CCN(C(=O)CO)[C@@H](c1cc(-c2cc(F)ccc2F)cn1Cc1ccccc1)C(C)(C)C)NC(=O)[C@H](CC(N)=O)NC(=O)Cc1ccncc1 [RM-B, N^1-[(2S)-4-[{(1R)-1-[1-Benzyl-4-(2,5-difluorophenyl)-1H-pyrrol-2-yl]-2,2-dimethylpropyl}(glycoloyl)amino]-1-(methylamino)-1-oxobutan-2-yl]-N^2-(pyridin-4-ylacetyl)-L-aspartamide]

Compound: CNC(=O)[C@H](CCN(C(=O)CO)[C@@H](c1cc(-c2cc(F)ccc2F)cn1Cc1ccccc1)C(C)(C)C)NC(=O)[C@H](CCC(N)=O)NC(=O)Cc1ccncc1 [RM-C, N^1-[(2S)-4-[{(1R)-1-[1-Benzyl-4-(2,5-difluorophenyl)-1H-pyrrol-2-yl]-2,2-dimethylpropyl}(glycoloyl)amino]-1-(methylamino)-1-oxobutan-2-yl]-N^2-(pyridin-4-ylacetyl)-L-glutamide]
cleavage by legumain (in words) (legumain; rh legumain): not cleaved; also recorded: not possible to show any cleavage by legumain

— patent US12059472B2 (Bayer Aktiengesellschaft, priority 2016, dated 2024)
